Here are results for one molecule from PMC2747507 (The Pediatric infectious disease journal, 2009).

Molecules are shown by their SMILES. Like-named read-outs stand apart in the source and are kept apart here. Numbered stars: 1 amine (or outer) side, 2 acyl side, 3 side chain; on linkers, the order of the positions; unused ones are H or OH. Bridge positions count the residues as written; N and C are the ends. Square brackets hold non-standard residues; d marks the D form. Peptide text beside a SMILES is read from it. * marks the point of attachment. hTyr(3S-OH,4S-OH,3'-OSO3H) = N[C@H](C(=O)O)[C@H](O)[C@@H](O)c1ccc(O)c(OS(=O)(=O)O)c1; Orn(4R-OH,5R-OH) = O=C([C@H](C[C@@H](O)[C@@H](O)N[*:3])N[*:1])[*:2]; Pro(3S-OH,4S-Me) = C[C@H]1CN[C@H](C(=O)O)[C@H]1O; X1 = CCCCCOc1ccc(-c2cc(-c3ccc(C(=O)*)cc3)no2)cc1; Gln(3R-OH) = NC(=O)C[C@@H](O)[C@H](N)C(=O)O; Hyp = O=C(O)[C@@H]1C[C@@H](O)CN1

The conditions of data set [1]: cited from earlier work.
For data set [2] the following is noted: cited from earlier work. The source holds these as a separate data set.
Data set [3] relates to central nervous system infections. Conditions: neutropenic rabbits; cited from earlier work.
Data set [4] is classed as in vivo, human (preterm neonates). Conditions: 15 mg/kg/day IV.
The format of data set [5] is in vivo, human (preterm neonates).
The mark [6] stands for this setting: neonates <1000 grams (n=7), mean (SD), SD.
Setting [7] is: neonates ≥1000 grams (n=5), mean (SD), SD.
Where [8] appears, read: 12 neonates, 15 mg/kg/day IV for 5 days, not felt related to micafungin.

A word on the Vdss: it is the apparent volume that relates the amount in the body to the concentration in plasma or blood. With `CCCCCOc1ccc(-c2cc(-c3ccc(C(=O)N[C@H]4C[C@@H](O)[C@@H](O)NC(=O)[C@@H]5[C@@H](O)[C@@H](C)CN5C(=O)[C@H]([C@H](O)CC(N)=O)NC(=O)[C@H]([C@H](O)[C@@H](O)c5ccc(O)c(OS(=O)(=O)O)c5)NC(=O)[C@@H]5C[C@@H](O)CN5C(=O)[C@H]([C@@H](C)O)NC4=O)cc3)no2)cc1` [micafungin] (X1-[Orn(4R-OH,5R-OH)]T[Hyp][hTyr(3S-OH,4S-OH,3'-OSO3H)][Gln(3R-OH)][Pro(3S-OH,4S-Me)]; lactam 1-C), the volume of distribution (Vdss) is given as 0.26 L/kg in data set [1] (adult studies); 1.637(0.657) L/kg in data set [4] (setting [6]); 1.344(0.141) L/kg in data set [4] (setting [7]); 1.515(0.516) L/kg in data set [4] (whole cohort n=12, weight-normalized, mean (SD), SD). For the same molecule, the “average AUC” value in data set [1] (adults, 150 mg dose) was 166.7 µg·h/mL. Further, the CL in data set [1] (adults) is 0.16 mL/min/kg; in data set [1] (children ages 2–8 years) it was 0.38 mL/min/kg; in data set [1] (children ages 9–17 years), 0.28 mL/min/kg; in data set [2] (neonates < 1000g, single dose 0.75 mg/kg, data from 4 patients), 1.32 mL/min/kg. Moreover, the “mean CL” value in data set [2] (18 neonates > 1000 g, single IV dose 0.75, 1.5 or 3.0 mg/kg) is 0.65 mL/min/kg. The “Vdss in neonates from the previous study” value in data set [2] (single-dose study in neonates) is given as 0.44 L/kg. Further, in data set [3], the “treatment of central nervous system infections” value is on record as “Successful treatment”. The “highest observed AUC0–24” value in data set [4] (preterm neonates, maximum of n=12) amounted to 555.6 µg·h/mL. In addition, the values for the Vdβ in data set [4] (setting [6]) and in data set [4] (setting [7]) were 0.636(0.370) L/kg and 0.581(0.106) L/kg, respectively. In data set [4] (whole cohort n=12, mean (SD), SD), the “Vdβ, volume of distribution in the elimination phase” value was 0.613(0.282) L/kg. Further, the Cmax in data set [4] (whole cohort n=12, obtained directly from the data, mean (SD), SD) is 38.4(8.8) ug/mL. Moreover, in data set [5] (setting [8]), the “reported AE: hypochloremia” value is 33%. Further, in data set [5] (setting [8]), the “reported AE: hypokalemia” value is recorded as 25%. The “reported AE: hyponatremia” value in data set [5] (setting [8]) worked out at 42%. Moreover, the “reported AE: monocytosis” value in data set [5] (setting [8]) is on record as 25%. Moreover, the “renal toxicity and changes in hematology parameters” value in data set [5] (12 neonates, baseline vs end of therapy) is reported as “No evidence of renal toxicity or significant changes in hematology parameters”. The deaths entry in data set [5] (12 neonates, 3 days after completing the course of micafungin) was “One 540 g neonate died on day of life 11 from necrotizing enterocolitis”. For the same molecule, the “Potassium, after 5th dose” value in data set [5] (median (IQR), prior to 1st dose 4.0 (3.4, 4.4), P 0.03) is on record as 4.6 mmol/L.
